These results are taken from patent US11304949B2, “Treatment of hidradenitis suppurativa using JAK inhibitors” (Incyte Corporation, priority 2018, dated 2022).

For assay [1], the target named is human JAK1 (a.a. 837-1142) (Homo sapiens, UniProt P23458). The assay can be described thus: In vitro JAK kinase assay (HTRF), JAK1. The note with it: 1 mM ATP. It counts as biochemical. On the technique in general: Time-resolved FRET reads energy transfer from a long-lived donor to a nearby acceptor.
The subject of assay [2] is human JAK1 (a.a. 837-1142). The assay can be described thus: In vitro JAK kinase assay (HTRF), JAK1. The format is biochemical. The note with it: IC50 ratio at 1 mM ATP.

Where only a bound is given, the exact number is not on record here.

The molecule `N#CCC(C1CCN(c2nc3cccnc3o2)C1)n1cc(-c2ncnc3[nH]ccc23)cn1` (stereo not drawn) [Compound 7, 3-(1-[1,3]oxazolo[5,4-b]pyridin-2-ylpyrrolidin-3-yl)-3-[4-(7H-pyrrolo[2,3-d]pyrimidin-4-yl)-1H-pyrazol-1-yl]propanenitrile] registered an IC50 in assay [1] of under 10 nM. In addition, in assay [2], the JAK2/JAK1 is over 10.

As for `N#CC[C@]1(n2cc(-c3ncnc4[nH]ccc34)cn2)C[C@H](N2CCN(C(=O)c3ccnc(C(F)(F)F)n3)CC2)C1` [Compound 10, [trans-1-[4-(7H-pyrrolo[2,3-d]pyrimidin-4-yl)-1H-pyrazol-1-yl]-3-(4-{[2-(trifluoromethyl)pyrimidin-4-yl]carbonyl}piperazin-1-yl)cyclobutyl]acetonitrile], the IC50 in assay [1] is under 10 nM. The JAK2/JAK1 in assay [2] is recorded as over 10.

As to `N#CCC1(n2cc(-c3ncnc4[nH]ccc34)cn2)CN([C@H]2CC[C@@H](Oc3cc(CCO)nc(C(F)(F)F)n3)CC2)C1` [Compound 18, {1-(cis-4-{[6-(2-hydroxyethyl)-2-(trifluoromethyl)pyrimidin-4-yl]oxy}cyclohexyl)-3-[4-(7H-pyrrolo[2,3-d]pyrimidin-4-yl)-1H-pyrazol-1-yl]azetidin-3-yl}acetonitrile], in assay [1], the IC50 was under 10 nM. The JAK2/JAK1 in assay [2] is listed as over 10.

`N#CCC1(n2cc(-c3ncnc4[nH]ccc34)cn2)CN(C2CCN(C(=O)c3ccnc(C(F)(F)F)n3)CC2)C1` [Compound 3, [3-[4-(7H-pyrrolo[2,3-d]pyrimidin-4-yl)-1H-pyrazol-1-yl]-1-(1-{[2-(trifluoromethyl)pyrimidin-4-yl]carbonyl}piperidin-4-yl)azetidin-3-yl]acetonitrile] gave an IC50 in assay [1] of under 10 nM. Further, in assay [2], the JAK2/JAK1 was over 10.

In assay [1], `N#CCC(C1CCN(c2cccc(Cl)n2)C1)n1cc(-c2ncnc3[nH]ccc23)cn1` (single isomer, unassigned) [Compound 6, 3-[1-(6-chloropyridin-2-yl)pyrrolidin-3-yl]-3-[4-(7H-pyrrolo[2,3-d]pyrimidin-4-yl)-1H-pyrazol-1-yl]propanenitrile] returned an IC50 of under 10 nM. For the same molecule, in assay [2], the JAK2/JAK1 is over 10.

In assay [1], `N#CC[C@]1(n2cc(-c3ncnc4[nH]ccc34)cn2)C[C@H](N2CCC(Oc3cc(CN4CC(O)C4)cc(C(F)(F)F)n3)CC2)C1` [Compound 11, {trans-3-(4-{[4-[(3-hydroxyazetidin-1-yl)methyl]-6-(trifluoromethyl)pyridin-2-yl]oxy}piperidin-1-yl)-1-[4-(7H-pyrrolo[2,3-d]pyrimidin-4-yl)-1H-pyrazol-1-yl]cyclobutyl}acetonitrile] had an IC50 of under 10 nM. In addition, in assay [2], the JAK2/JAK1 is over 10.

`CC(C)(O)c1cc(O[C@H]2CC[C@@H](N3CC(CC#N)(n4cc(-c5ncnc6[nH]ccc56)cn4)C3)CC2)nc(C(F)(F)F)c1` [Compound 20, {1-(cis-4-{[4-(1-hydroxy-1-methylethyl)-6-(trifluoromethyl)pyridin-2-yl]oxy}cyclohexyl)-3-[4-(7H-pyrrolo[2,3-d]pyrimidin-4-yl)-1H-pyrazol-1-yl]azetidin-3-yl}acetonitrile] gave an IC50 in assay [1] of under 10 nM. Also, the JAK2/JAK1 in assay [2] is listed as over 10.

Regarding `C[C@H](O)CNCc1cc(OC2CCN([C@H]3C[C@](CC#N)(n4cc(-c5ncnc6[nH]ccc56)cn4)C3)CC2)nc(C(F)(F)F)c1` [Compound 25, {trans-3-(4-{[4-({[(2S)-2-hydroxypropyl]amino}methyl)-6-(trifluoromethyl)pyridin-2-yl]oxy}piperidin-1-yl)-1-[4-(7H-pyrrolo[2,3-d]pyrimidin-4-yl)-1H-pyrazol-1-yl]cyclobutyl}acetonitrile], in assay [1], the IC50 is under 10 nM. For the same molecule, in assay [2], the JAK2/JAK1 is over 10.

In assay [1], `C[C@@H](O)CNCc1cc(OC2CCN([C@H]3C[C@](CC#N)(n4cc(-c5ncnc6[nH]ccc56)cn4)C3)CC2)nc(C(F)(F)F)c1` [Compound 24, {trans-3-(4-{[4-({[(2R)-2-hydroxypropyl]amino}methyl)-6-(trifluoromethyl)pyridin-2-yl]oxy}piperidin-1-yl)-1-[4-(7H-pyrrolo[2,3-d]pyrimidin-4-yl)-1H-pyrazol-1-yl]cyclobutyl}acetonitrile] gave a half-maximal inhibitory concentration (IC50) of under 10 nM. Further, in assay [2], the JAK2/JAK1 is on record as over 10.

`C[C@H](NC(=O)c1cc(F)c(N2CC(CC#N)(n3cc(-c4ncnc5[nH]ccc45)cn3)C2)cc1F)C(F)(F)F` [Compound 16, 4-{3-(cyanomethyl)-3-[4-(7H-pyrrolo[2,3-d]pyrimidin-4-yl)-1H-pyrazol-1-yl]azetidin-1-yl}-2,5-difluoro-N-[(1S)-2,2,2-trifluoro-1-methylethyl]benzamide] came in with an IC50 in assay [1] of under 10 nM. Also, the JAK2/JAK1 in assay [2] was over 10.

`CCNCc1cc(O[C@H]2CC[C@@H](N3CC(CC#N)(n4cc(-c5ncnc6[nH]ccc56)cn4)C3)CC2)nc(C(F)(F)F)c1` [Compound 19, {1-(cis-4-{[4-[(ethylamino)methyl]-6-(trifluoromethyl)pyridin-2-yl]oxy}cyclohexyl)-3-[4-(7H-pyrrolo[2,3-d]pyrimidin-4-yl)-1H-pyrazol-1-yl]azetidin-3-yl}acetonitrile] displayed an IC50 in assay [1] of under 10 nM. In addition, the JAK2/JAK1 in assay [2] was over 10.

Consider `N#CCC(CN1CCN(C(=O)c2ccc(C#N)cc2F)CC1)n1cc(-c2ncnc3[nH]ccc23)cn1` (stereo not drawn) [Compound 8, 4-[(4-{3-cyano-2-[4-(7H-pyrrolo[2,3-d]pyrimidin-4-yl)-1H-pyrazol-1-yl]propyl}piperazin-1-yl)carbonyl]-3-fluorobenzonitrile], for which the IC50 in assay [1] was under 10 nM. The JAK2/JAK1 in assay [2] is over 10.

Molecule `N#CCC1(n2cc(-c3ncnc4[nH]ccc34)cn2)CN(C2CCN(C(=O)Nc3ccc(F)cc3C(F)(F)F)CC2)C1` [Compound 2, 4-{3-(Cyanomethyl)-3-[4-(7H-pyrrolo[2,3-d]pyrimidin-4-yl)-1H-pyrazol-1-yl]azetidin-1-yl}-N-[4-fluoro-2-(trifluoromethyl)phenyl]piperidine-1-carboxamide] had an IC50 in assay [1] of under 10 nM. Also, the JAK2/JAK1 in assay [2] is given as over 10.

As for `N#CCC(CN1CCN(C(=O)c2ccc(C#N)cc2F)CC1)n1ccc(-c2ncnc3[nH]ccc23)c1` (stereo not drawn) [Compound 9, 4-[(4-{3-cyano-2-[3-(7H-pyrrolo[2,3-d]pyrimidin-4-yl)-1H-pyrrol-1-yl]propyl}piperazin-1-yl)carbonyl]-3-fluorobenzonitrile], in assay [1], the IC50 was under 10 nM. In assay [2], the JAK2/JAK1 was over 10.

In assay [1], `N#CC[C@]1(n2cc(-c3ncnc4[nH]ccc34)cn2)C[C@H](N2CCC(Oc3cc(CCO)cc(C(F)(F)F)n3)CC2)C1` [Compound 26, {trans-3-(4-{[4-(2-hydroxyethyl)-6-(trifluoromethyl)pyridin-2-yl]oxy}piperidin-1-yl)-1-[4-(7H-pyrrolo[2,3-d]pyrimidin-4-yl)-1H-pyrazol-1-yl]cyclobutyl}acetonitrile] showed an IC50 of under 10 nM. In addition, the JAK2/JAK1 in assay [2] is over 10.

As usually defined, the IC50 is the concentration that gives 50% inhibition. The low end stands for greater potency in that assay, the high end for weaker potency in that assay.
